Laboratory results taken from patent US8680290B2, “Isoxazoline derivatives and their use as herbicides” (Syngenta Limited, priority 2004, dated 2014).

Experiments:
[1] = tested on: Monocotyledonous and dicotyledonous test plants; experiment: Example B1 herbicidal action, application pre-emergence (Table B1b); assay type: in vivo; settings: 250 g/ha, evaluated after 4 weeks
Description: (§1) Monocotyledonous and dicotyledonous test plants were sown in seed trays in standard soil. Immediately after sowing (pre-emergence) or after 8 to 9 days cultivation (post-emergence), the test compounds were applied by spraying in the form of an aqueous solution derived from the formulation of the technical active ingredient in 0.6 ml acetone and 45 ml formulation solution containing 10.6% Emulsogen EL (CAS RN 61791-12-6), 42.2% N-methylpyrrolidone, 42.2% dipropylene glycol monomethyl ether (CAS RN 34590-94-8) and 0.2% X-77 (CAS RN 11097-66-8). The test plants were then grown in a greenhouse under optimum conditions. After a test duration of 3 weeks (post-emergence) or 4 weeks (pre-emergence), the test was evaluated (10=total damage to plant, 0=no damage to plant).

[2] = tested on: Monocotyledonous and dicotyledonous test plants; experiment: Example B1 herbicidal action, application post-emergence (Table B1a); assay type: in vivo; settings: 250 g/ha, evaluated after 3 weeks, scale 0-10
Description: as §1

Row | SMILES | herbicidal action (damage rating 0-10), Amaranthus [1] | herbicidal action (damage rating 0-10), Digitaria [1] | herbicidal action (damage rating 0-10), Panicum [1] | herbicidal action (damage rating 0-10), Setaria [1] | herbicidal action (damage rating 0-10), Sida [1] | herbicidal damage rating, Abutilon [2] | herbicidal damage rating, Amaranthus [2] | herbicidal damage rating, Digitaria [2] | herbicidal damage rating, Panicum [2] | herbicidal damage rating, Setaria [2] | herbicidal damage rating, Sida [2]
1 | CC1(C)CC(S(=O)(=O)C(Br)c2ccccc2C#N)=NO1 (racemic) [1.83] | 9 | 9 | 10 | 9 | 0 | 5 | 5 | 9 | 7 | 7 | 3
2 | Cc1ccccc1C(F)S(=O)(=O)C1=NOC(C)(C)C1 (racemic) [1.93] | 8 | 10 | 10 | 10 | 6 | 3 | 7 | 7 | 8 | 3 | 2
3 | CC1(C)CC(S(=O)(=O)C(F)(Cl)c2ccccc2C(F)(F)F)=NO1 (racemic) [1.95] | 7 | 10 | 10 | 10 | 7 | 0 | 0 | 8 | 7 | 3 | 2
4 | COc1cc(OC)cc(C(F)(Cl)S(=O)(=O)C2=NOC(C)(C)C2)c1 (racemic) [1.96] | 9 | 10 | 10 | 10 | 4 | 5 | 0 | 8 | 5 | 3 | 2
5 | CC1(C)CC(S(=O)(=O)C(F)(I)c2c(F)cccc2F)=NO1 (racemic) [Compound No. 1.61] | 10 | 10 | 10 | 10 | 7 | 3 | 0 | 7 | 4 | 6 | 3
6 | C=C(OC(C)=O)C(F)(c1c(F)cccc1F)S(=O)(=O)C1=NOC(C)(C)C1 (racemic) [Compound No. 1.62] | 10 | 9 | 10 | 10 | 8 | 4 | 2 | 7 | 8 | 6 | 5
7 | CC1(C)CC(S(=O)(=O)C(C)(F)c2c(F)cccc2F)=NO1 (centres unmarked) [1.55] | 9 | 10 | 10 | 10 | 5 | 5 | 3 | 6 | 5 | 7 | 3
8 | CC1(C)CC(S(=O)(=O)C(F)(F)c2ccccc2C(F)(F)F)=NO1 [1.65] | 10 | 10 | 10 | 10 | 8 | 2 | 0 | 8 | 7 | 5 | 2
9 | CC1(C)CC(S(=O)(=O)C(F)(F)c2ccccc2OC(F)F)=NO1 [1.66] | 10 | 10 | 10 | 10 | 9 | 8 | 5 | 8 | 5 | 7 | 5
10 | CC1(C)CC(S(=O)(=O)C(F)(F)c2ccccc2OC(F)(F)F)=NO1 [1.67] | 10 | 10 | 10 | 10 | 9 | 4 | 3 | – | 3 | 5 | 4
11 | CC1(C)CC(S(=O)(=O)C(F)(F)c2ccccc2SC(F)(F)F)=NO1 [1.70] | 10 | 10 | 10 | 10 | 8 | 5 | 2 | 8 | 5 | 7 | 5
12 | CC1(C)CC(S(=O)(=O)C(F)(F)c2ccccc2C#N)=NO1 [1.72] | 10 | 10 | 10 | 10 | 6 | 3 | 8 | 7 | 7 | 8 | 0
13 | COc1cc(OC)cc(C(F)(F)S(=O)(=O)C2=NOC(C)(C)C2)c1 [1.76] | 9 | 9 | 10 | 8 | 3 | 5 | 3 | – | 5 | 5 | 5
14 | CC1(C)CC(S(=O)(=O)C(F)(F)c2ccccc2)=NO1 [1.77] | 10 | 10 | 10 | 10 | 7 | 5 | 0 | 8 | 5 | 6 | 3
15 | Cc1ccccc1C(F)(F)S(=O)(=O)C1=NOC(C)(C)C1 [1.92] | 10 | 10 | 10 | 10 | 8 | 5 | 3 | 8 | 5 | 7 | 7
16 | CC1(C)CC(S(=O)(=O)C(F)(F)c2ccccc2F)=NO1 [1.94] | 10 | 10 | 10 | 10 | 8 | 5 | 7 | 8 | 7 | 8 | 0
17 | CC1(C)CC(S(=O)(=O)C(F)(Cl)c2ccccc2[S+]([O-])C(F)(F)F)=NO1 (centres unmarked) [1.97] | 8 | 10 | 10 | 9 | 0 | 4 | 5 | 8 | 5 | 7 | 0
